Holding throughout (type): in vivo
Data set [1] relates to cotton aphid (Aphis gossypii). Briefly: Aphis gossypii test, spray application on cotton plants. Particulars: 100 ppm. From the text:
(§1) The expected activity of a given combination of two active compounds can be calculated as follows (cf. Colby, S. R., “Calculating Synergistic and Antagonistic Responses of Herbicide Combinations”, Weeds 15, pages 20-22, 1967):
(§2) • X is the kill rate expressed in % of the untreated control when employing active compound A at an application rate of m ppm, • Y is the kill rate expressed in % of the untreated control when employing active compound B at an application rate of n ppm, • E is the kill rate expressed in % of the untreated control when using the active compounds A and B at application rates of m and n ppm,
(§3) If the actual insecticidal kill rate exceeds the calculated value, the kill of the combination is superadditive, i.e. a synergistic effect is present. In this case, the actually observed kill rate must exceed the value calculated using the above formula for the expected kill rate (E).
(§4) Adjuvant: rapeseed oil methyl ester (0.1% of a.i./l)
(§5) To prepare a suitable application solution, 1 part by weight of formulation is mixed with the appropriate amount of water and the adjuvant and the concentrate is diluted with water to the desired concentration. […]
(§6) After the desired period of time, the kill in % is determined. […] The determined kill rates are entered in Colby's formula.

Data set [2] has as its system grain aphid (Metopolophium dirhodum). Briefly: Metopolophium dirhodum test, spray application on barley plants.
From the text: as §1, §2, §3, §4, §5, §6

Data set [3] concerns green peach aphid (Myzus persicae). Briefly: Myzus persicae test, spray application on bell pepper plants.
From the text: as §1, §2, §3, §4
To prepare a suitable application solution, 1 part by weight of formulation is mixed with the appropriate amount of water and the adjuvant and the concentrate is diluted with water to the desired concentration.
Bell pepper plants (Capsicum sativum) which are heavily infested by the green peach aphid (Myzus persicae) are sprayed to runoff point with the desired concentration of the application solution.
After the desired period of time, the kill in % is determined. 100% means that all aphids have been killed; 0% means that none of the aphids have been killed. The determined kill rates are entered in Colby's formula.

Data set [4] deals with winter barley. The data set can be described thus: Safener test after spraying: plant damage to barley (greenhouse). Particulars: 100 g of a.i./ha. Here is the method: (§7) Method: Safener test after spraying
(§8) Solvent: 7 parts by weight of DMF
(§9) Emulsifier: 2 parts by weight of alkylaryl polyglycol ether
(§10) To produce a suitable preparation of active compound, 1 part by weight of active compound is mixed with the stated amounts of solvent and emulsifier, and the concentrate is diluted with tap water to the desired concentration. The desired amount of safener (in the case of mefenpyr-diethyl as WP 20) is mixed into the water used for dilution. Furthermore, 2 g of a.i./l of rapeseed oil methyl ester 500 EW are added. Leaves of winter barley at the 2-leaf stage which are infested by the bird cherry-oat aphid (Rhopalosiphum padi) are treated with the desired active compound and safener concentrations using a spray boom, the water application rate being […]. Per variant, the test is carried out at least twice. Evaluation is carried out after 7 d and/or 14 d by assessing the plant damage in % and the kill of the grain aphids in % compared to the untreated control. 100% damage means that the plant has died, and 0% means no damage. 100% effect on the grain aphids means that all aphids have been killed; 0% means that none of the aphids have been killed.
(§11) Results for greenhouse trials with safener after spraying against Rhopalosiphum padi on summer barley/winter barley

Data set [5] deals with bird cherry-oat aphid (Rhopalosiphum padi). The data set can be described thus: Safener test after spraying: kill of aphids on barley (greenhouse). The conditions noted are these: 100 g of a.i./ha, barley at 2-leaf stage, spray boom. As to the method: as §7, §8, §9, §10, §11

As for `C=CCN(CC=C)C(=O)C(Cl)Cl` [Dichlormid a.i., 2,2-dichloro-N,N-di-2-propenyl-acetamide], the “Kill rate in % after 7 d, found” value in data set [1], in data set [2] (100 ppm) and in data set [3] (100 ppm) was 0% in each case.
Consider `CCOC(=O)C1=NN(c2ccc(Cl)cc2Cl)C(C)(C(=O)OCC)C1` (centres unmarked) [mefenpyr-diethyl, diethyl 1-(2,4-dichloro-phenyl)-4,5-dihydro-5-methyl-1H-pyrazole-3,5-dicarboxylate], for which, in data set [4] (7 d), the “Damage to new growth (%) 7 d” value was 0%. In addition, in data set [4] (7 d, 100% = plant has died), the “Damage (%) 7 d” value was 0%. The “Damage to new growth (%) 14 d” value in data set [4] (14 d) turned out to be 0%. Besides, in data set [4] (14 d, 100% = plant has died), the “Damage (%) 14 d” value stood at 0%. Further, in data set [5], the “Kill (%) 7 d” value was 0%.
As for `Clc1cc(Cl)nc(-c2ccccc2)n1` [Fenclorim a.i., 4,6-dichloro-2-phenyl-pyrimidine], the “Kill rate in % after 7 d, found” value in data set [2] (25 ppm) and in data set [3] (50 ppm) was 0% each time.
For the compound `CC1(C)OC(c2ccco2)CN1C(=O)C(Cl)Cl` (centres unmarked) [Furilazole a.i., 3-dichloroacetyl-5-(2-furanyl)-2,2-dimethyl-oxazolidine], the “Kill rate in % after 7 d, found” value in data set [3] (50 ppm) was determined as 0%.

The values above are taken from patent publication US8202875B2, “Selective insecticides based on substituted cyclic ketoenols and safeners” (Bayer Cropscience AG, priority 2004, dated 2012).
